Assay results taken from ChEMBL document CHEMBL5316357, “Discovery of Linvencorvir (RG7907), a Hepatitis B Virus Core Protein Allosteric Modulator, for the Treatment of Chronic HBV Infection” (J Med Chem, 2023).

Columns and labels:
[1] = Half life in male minipig at 10 mg/kg,po by LC-MS/MS analysis; format: ADME, organism-based, Sus scrofa domesticus; conditions: pig, in vivo
[2] = Half life in female cynomolgus monkey at 30 mg/kg,po by LC-MS/MS analysis; format: ADME, organism-based, Macaca fascicularis; conditions: in vivo
[3] = AUClast in male cynomolgus monkey at 10 mg/kg,po by LC-MS/MS analysis; format: ADME, organism-based, Macaca fascicularis; set-up: dose 10 mg/kg, route po; conditions: in vivo
[4] = Tmax in female minipig at 3 mg/kg,po by LC-MS/MS analysis; format: ADME, organism-based, Sus scrofa domesticus; conditions: pig, in vivo
[5] = Half life in male minipig at 3 mg/kg,po by LC-MS/MS analysis; format: ADME, organism-based, Sus scrofa domesticus; conditions: pig, in vivo
[6] = Oral bioavailability in male Wistar Han rat at 3 mg/kg by LC-MS/MS analysis; format: ADME, organism-based; conditions: in vivo
[7] = Half life in female Wistar Han rat at 3 mg/kg,po by LC-MS/MS analysis; format: ADME, organism-based; conditions: in vivo
[8] = AUClast in female cynomolgus monkey at 3 mg/kg,po by LC-MS/MS analysis; format: ADME, organism-based, Macaca fascicularis; set-up: dose 3 mg/kg, route po; conditions: in vivo
[9] = Cmax in female cynomolgus monkey at 10 mg/kg,po by LC-MS/MS analysis; format: ADME, organism-based, Macaca fascicularis; set-up: dose 10 mg/kg, route po; conditions: in vivo
[10] = Clearance in mouse plasma at 1 mg/kg,iv; format: ADME, organism-based
[11] = Half life in female Wistar Han rat at 30 mg/kg,po by LC-MS/MS analysis; format: ADME, organism-based; conditions: in vivo
[12] = Toxicity in rat assessed as NOAEL administrated upto 28 days; conditions: in vivo, time < 28 day
[13] = AUC (0-infinity) in mouse liver at 3 mg/kg,po; format: ADME, organism-based; set-up: dose 3 mg/kg, route po
[14] = AUClast in female minipig at 10 mg/kg,po by LC-MS/MS analysis; format: ADME, organism-based, Sus scrofa domesticus; set-up: dose 10 mg/kg, route po; conditions: pig, in vivo
[15] = AUClast in female Wistar Han rat at 30 mg/kg,po by LC-MS/MS analysis; format: ADME, organism-based; set-up: dose 30 mg/kg, route po; conditions: in vivo
[16] = Oral bioavailability in female cynomolgus monkey at 3 mg/kg by LC-MS/MS analysis; format: ADME, organism-based, Macaca fascicularis; conditions: in vivo
[17] = Clearance in rat hepatocyte at 2 uM measured upto 120 mins by LC-MS/MS analysis; format: ADME, cell-based; conditions: hepatocytes
[18] = Oral bioavailability in female minipig at 30 mg/kg by LC-MS/MS analysis; format: ADME, organism-based, Sus scrofa domesticus; conditions: pig, in vivo
[19] = AUClast in minipig at 2 mg/kg,iv by LC-MS/MS analysis; format: ADME, organism-based, Sus scrofa domesticus; set-up: dose 2 mg/kg, route iv; conditions: pig, in vivo
[20] = Tmax in female cynomolgus monkey at 10 mg/kg,po by LC-MS/MS analysis; format: ADME, organism-based, Macaca fascicularis; conditions: in vivo
[21] = Half life in male cynomolgus monkey at 3 mg/kg,po by LC-MS/MS analysis; format: ADME, organism-based, Macaca fascicularis; conditions: in vivo
[22] = AUC (0-infinity) in mouse plasma at 3 mg/kg,po; format: ADME, organism-based; set-up: dose 3 mg/kg, route po; conditions: in vivo
[23] = Volume of distribution at steady state in minipig at 2 mg/kg,iv by LC-MS/MS analysis; format: ADME, organism-based, Sus scrofa domesticus; conditions: pig, in vivo, read-out: Vdss
[24] = Oral bioavailability in female cynomolgus monkey at 10 mg/kg by LC-MS/MS analysis; format: ADME, organism-based, Macaca fascicularis; conditions: in vivo
[25] = Clearance in human hepatocyte at 2 uM measured upto 120 mins by LC-MS/MS analysis; format: ADME, cell-based; conditions: hepatocytes
[26] = Tmax in male Wistar Han rat at 3 mg/kg,po by LC-MS/MS analysis; format: ADME, organism-based; conditions: in vivo
[27] = Oral bioavailability in rat plasma at 3 mg/kg; format: ADME, organism-based; conditions: plasma
[28] = AUClast in female cynomolgus monkey at 30 mg/kg,po by LC-MS/MS analysis; format: ADME, organism-based, Macaca fascicularis; set-up: dose 30 mg/kg, route po; conditions: in vivo
[29] = Cmax in male Wistar Han rat at 10 mg/kg,po by LC-MS/MS analysis; format: ADME, organism-based; set-up: dose 10 mg/kg, route po; conditions: in vivo
[30] = Half life in female Wistar Han rat at 10 mg/kg,po by LC-MS/MS analysis; format: ADME, organism-based; conditions: in vivo
[31] = Cmax in male minipig at 3 mg/kg,po by LC-MS/MS analysis; format: ADME, organism-based, Sus scrofa domesticus; set-up: dose 3 mg/kg, route po; conditions: pig, in vivo
[32] = biological target: Cytochrome P450 2D6 (Homo sapiens, UniProt P10635); test: Inhibition of CYP2D6 (unknown origin); format: ADME
[33] = Cmax in female minipig at 30 mg/kg,po by LC-MS/MS analysis; format: ADME, organism-based, Sus scrofa domesticus; set-up: dose 30 mg/kg, route po; conditions: pig, in vivo
[34] = Tmax in female cynomolgus monkey at 30 mg/kg,po by LC-MS/MS analysis; format: ADME, organism-based, Macaca fascicularis; conditions: in vivo
[35] = Oral bioavailability in female minipig at 3 mg/kg by LC-MS/MS analysis; format: ADME, organism-based, Sus scrofa domesticus; conditions: pig, in vivo
[36] = Oral bioavailability in female Wistar Han rat at 30 mg/kg by LC-MS/MS analysis; format: ADME, organism-based; conditions: in vivo
[37] = AUClast in male minipig at 30 mg/kg,po by LC-MS/MS analysis; format: ADME, organism-based, Sus scrofa domesticus; set-up: dose 30 mg/kg, route po; conditions: pig, in vivo
[38] = Oral bioavailability in female cynomolgus monkey at 30 mg/kg by LC-MS/MS analysis; format: ADME, organism-based, Macaca fascicularis; conditions: in vivo
[39] = Tmax in female Wistar Han rat at 3 mg/kg,po by LC-MS/MS analysis; format: ADME, organism-based; conditions: in vivo
[40] = Oral bioavailability in male cynomolgus monkey at 30 mg/kg by LC-MS/MS analysis; format: ADME, organism-based, Macaca fascicularis; conditions: in vivo
[41] = Cmax in male cynomolgus monkey at 3 mg/kg,po by LC-MS/MS analysis; format: ADME, organism-based, Macaca fascicularis; set-up: dose 3 mg/kg, route po; conditions: in vivo
[42] = Half life in female cynomolgus monkey at 3 mg/kg,po by LC-MS/MS analysis; format: ADME, organism-based, Macaca fascicularis; conditions: in vivo
[43] = AUClast in female minipig at 30 mg/kg,po by LC-MS/MS analysis; format: ADME, organism-based, Sus scrofa domesticus; set-up: dose 30 mg/kg, route po; conditions: pig, in vivo
[44] = Clearance in rat plasma at 1 mg/kg,iv; format: ADME, organism-based
[45] = Half life in male Wistar Han rat at 3 mg/kg,po by LC-MS/MS analysis; format: ADME, organism-based; conditions: in vivo
[46] = AUClast in female Wistar Han rat at 10 mg/kg,po by LC-MS/MS analysis; format: ADME, organism-based; set-up: dose 10 mg/kg, route po; conditions: in vivo
[47] = Tmax in female minipig at 30 mg/kg,po by LC-MS/MS analysis; format: ADME, organism-based, Sus scrofa domesticus; conditions: pig, in vivo
[48] = Half life in minipig at 2 mg/kg,iv by LC-MS/MS analysis; format: ADME, organism-based, Sus scrofa domesticus; conditions: pig, in vivo
[49] = Tmax in male cynomolgus monkey at 10 mg/kg,po by LC-MS/MS analysis; format: ADME, organism-based, Macaca fascicularis; conditions: in vivo
[50] = Tmax in male Wistar Han rat at 30 mg/kg,po by LC-MS/MS analysis; format: ADME, organism-based; conditions: in vivo
[51] = Cmax in female cynomolgus monkey at 3 mg/kg,po by LC-MS/MS analysis; format: ADME, organism-based, Macaca fascicularis; set-up: dose 3 mg/kg, route po; conditions: in vivo
[52] = Oral bioavailability in female Wistar Han rat at 3 mg/kg by LC-MS/MS analysis; format: ADME, organism-based; conditions: in vivo
[53] = AUClast in male minipig at 3 mg/kg,po by LC-MS/MS analysis; format: ADME, organism-based, Sus scrofa domesticus; set-up: dose 3 mg/kg, route po; conditions: pig, in vivo
[54] = Tmax in male cynomolgus monkey at 3 mg/kg,po by LC-MS/MS analysis; format: ADME, organism-based, Macaca fascicularis; conditions: in vivo
[55] = AUClast in male minipig at 10 mg/kg,po by LC-MS/MS analysis; format: ADME, organism-based, Sus scrofa domesticus; set-up: dose 10 mg/kg, route po; conditions: pig, in vivo
[56] = Tmax in male minipig at 30 mg/kg,po by LC-MS/MS analysis; format: ADME, organism-based, Sus scrofa domesticus; conditions: pig, in vivo
[57] = Oral bioavailability in male minipig at 3 mg/kg by LC-MS/MS analysis; format: ADME, organism-based, Sus scrofa domesticus; conditions: pig, in vivo
[58] = Cmax in male cynomolgus monkey at 30 mg/kg,po by LC-MS/MS analysis; format: ADME, organism-based, Macaca fascicularis; set-up: dose 30 mg/kg, route po; conditions: in vivo
[59] = AUClast in female Wistar Han rat at 3 mg/kg,po by LC-MS/MS analysis; format: ADME, organism-based; set-up: dose 3 mg/kg, route po; conditions: in vivo

Cytochrome P450 2D6, sequence (P10635 whole entry): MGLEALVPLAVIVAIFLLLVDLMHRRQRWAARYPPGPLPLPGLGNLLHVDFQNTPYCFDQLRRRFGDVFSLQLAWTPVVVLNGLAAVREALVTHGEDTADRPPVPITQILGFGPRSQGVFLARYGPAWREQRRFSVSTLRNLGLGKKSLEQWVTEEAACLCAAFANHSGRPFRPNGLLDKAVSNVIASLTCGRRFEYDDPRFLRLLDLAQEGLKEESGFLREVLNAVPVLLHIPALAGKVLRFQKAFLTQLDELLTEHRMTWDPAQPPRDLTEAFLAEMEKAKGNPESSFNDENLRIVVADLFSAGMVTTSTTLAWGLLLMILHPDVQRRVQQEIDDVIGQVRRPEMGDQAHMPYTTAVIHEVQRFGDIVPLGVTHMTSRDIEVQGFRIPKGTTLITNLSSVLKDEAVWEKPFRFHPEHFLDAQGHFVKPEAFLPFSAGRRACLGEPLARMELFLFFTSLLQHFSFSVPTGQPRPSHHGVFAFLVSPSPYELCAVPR

With `CCOC(=O)C1=C(CN2CCN3C(=O)N(CC(C)(C)C(=O)O)C[C@@H]3C2)NC(c2nccs2)=N[C@H]1c1cccc(F)c1C` [LINVENCORVIR] the half-life [1] was 7.28 h, the half-life [2] was 5.98 h and the AUC(0-t) [3] was 1430 ng·h/mL. The Tmax [4] was 1 h, the half-life [5] was 9.69 h and the bioavailability [6] was 13.5%. The half-life [7] was 2.15 h, the AUC(0-t) [8] was 253 ng·h/mL and the Cmax [9] was 336 ng/mL. For the same compound, the clearance [10] was 20 mL/min/kg, the half-life [11] was 1.8 h and the NOAEL at 672 h [12] was 250 mg/kg. For the same compound, the AUC(0-inf) [13] was 8850 ng·h/mL, the AUC(0-t) [14] was 768 ng·h/mL and the AUC(0-t) [15] was 17800 ng·h/mL. It also gave a bioavailability [16] of 14.5%, a CLhep predicted at 2 µM [17] of 11 mL/min/kg and a bioavailability [18] of 12.4%. The AUC(0-t) [19] was 1370 ng·h/mL, the Tmax [20] was 0.5 h and the half-life [21] was 6.25 h. It also gave an AUC [22] of 275 ng·h/mL, a Vd [23] of 1.12 L/kg and a bioavailability [24] of 18.2%. For the same compound, the CLhep predicted at 2 µM [25] was 5.6 mL/min/kg, the Tmax [26] was 0.5 h and the bioavailability [27] was 14%. For the same compound, the AUC(0-t) [28] was 3150 ng·h/mL, the Cmax [29] was 512 ng/mL and the half-life [30] was 1.53 h. For the same compound, the Cmax [31] was 67.3 ng/mL, the IC50 [32] was over 50 µM and the Cmax [33] was 429 ng/mL. For the same compound, the Tmax [34] was 2 h, the bioavailability [35] was 10.6% and the bioavailability [36] was 105%. It also gave an AUC(0-t) [37] of 4150 ng·h/mL, a bioavailability [38] of 18.6% and a Tmax [39] of 0.5 h. The bioavailability [40] was 25.8%, the Cmax [41] was 64 ng/mL and the half-life [42] was 5.92 h. It also gave an AUC(0-t) [43] of 2550 ng·h/mL, a clearance [44] of 30 mL/min/kg and a half-life [45] of 1.87 h. The AUC(0-t) [46] was 1970 ng·h/mL, the Tmax [47] was 2 h and the half-life [48] was 2.19 h. For the same compound, the Tmax [49] was 2 h, the Tmax [50] was 1 h and the Cmax [51] was 100 ng/mL. For the same compound, the bioavailability [52] was 14.3%, the AUC(0-t) [53] was 228 ng·h/mL and the Tmax [54] was 0.25 h. For the same compound, the AUC(0-t) [55] was 1240 ng·h/mL, the Tmax [56] was 2 h and the bioavailability [57] was 12.6%. It also gave a Cmax [58] of 2870 ng/mL and an AUC(0-t) [59] of 220 ng·h/mL.
